Measured values published in ChEMBL document CHEMBL4325895, “Discovery and structure-activity-relationship study of novel imidazole cyclopropyl amine analogues for mutant isocitric dehydrogenase 1 (IDH1) inhibitors” (Bioorg Med Chem Lett, 2018).

Key:
[1] = biological target: Isocitrate dehydrogenase [NADP] cytoplasmic (Homo sapiens, UniProt O75874, R132H); assay: Inhibition of IDH1 (unknown origin) R132H mutant using alpha-KG as substrate after 60 mins in presence of NADPH by resazurin dye-based fluorescence assay
Isocitrate dehydrogenase [NADP] cytoplasmic (Homo sapiens, UniProt O75874, R132H), sequence (O75874 2-414 R132H limits assumed): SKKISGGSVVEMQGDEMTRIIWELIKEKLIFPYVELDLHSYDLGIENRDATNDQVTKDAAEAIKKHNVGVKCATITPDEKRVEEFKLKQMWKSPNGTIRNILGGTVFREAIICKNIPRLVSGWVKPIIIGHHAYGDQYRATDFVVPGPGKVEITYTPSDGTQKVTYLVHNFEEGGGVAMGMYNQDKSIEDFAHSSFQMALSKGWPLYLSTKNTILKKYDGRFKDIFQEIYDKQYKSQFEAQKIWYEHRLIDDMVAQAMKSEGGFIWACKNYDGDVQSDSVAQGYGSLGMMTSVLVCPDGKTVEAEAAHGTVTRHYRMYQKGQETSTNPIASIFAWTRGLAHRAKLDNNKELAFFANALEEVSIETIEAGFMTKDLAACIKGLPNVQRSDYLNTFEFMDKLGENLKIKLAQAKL

[2] = biological target: Isocitrate dehydrogenase [NADP] cytoplasmic (Homo sapiens, UniProt O75874, R132C); assay: Inhibition of IDH1 R132C mutant in human HT1080 cells assessed as inhibition of 2HG production after 48 hrs by LC-MS/MS analysis; format: cell-based
Isocitrate dehydrogenase [NADP] cytoplasmic (Homo sapiens, UniProt O75874, R132C), sequence (O75874 2-414 R132C limits assumed): as the sequence (O75874 2-414 R132H limits assumed) above, with H131C counted along it

[3] = Intrinsic clearance in mouse liver microsomes assessed per gram of protein at 0.1 uM after 60 mins in presence of NADPH by LC-MS/MS analysis; format: ADME, Microsome; conditions: 1 h
[4] = Intrinsic clearance in rat liver microsomes assessed per gram of protein at 0.1 uM after 60 mins in presence of NADPH by LC-MS/MS analysis; format: ADME, Microsome; conditions: 1 h
[5] = Intrinsic clearance in human liver microsomes assessed per gram of protein at 0.1 uM after 60 mins in presence of NADPH by LC-MS/MS analysis; format: ADME, Microsome; conditions: 1 h
[6] = Stability in human liver microsomes assessed as parent compound remaining at 0.01 uM after 60 mins by LC-MS/MS analysis; format: ADME, Microsome; conditions: read-out: Stability
[7] = Clearance in CD-1 mouse at 1 mg/kg, iv by mass spectrometric analysis; format: ADME, organism-based; conditions: in vivo
[8] = Volume of distribution at steady state in CD-1 mouse at 1 mg/kg, iv by mass spectrometric analysis; format: ADME, organism-based; conditions: in vivo
[9] = AUC in CD-1 mouse at 1 mg/kg, iv by mass spectrometric analysis; format: ADME, organism-based; conditions: in vivo
[10] = AUC in CD-1 mouse at 5 mg/kg, po administered via gavage by mass spectrometric analysis; format: ADME, organism-based; conditions: in vivo
[11] = Oral bioavailability in CD-1 mouse at 5 mg/kg administered via gavage by mass spectrometric analysis; format: ADME, organism-based; conditions: in vivo
[12] = Dose normalized AUC in CD-1 mouse at 5 mg/kg, po administered via gavage by mass spectrometric analysis; format: ADME, organism-based; conditions: in vivo
[13] = Drug level in human liver microsomes treated with (R)-3-(2-((1-(1-(3-chloro-4-fluorophenyl)-1H-imidazol-4-yl)cyclopropyl)amino)pyrimidin-4-yl)-4-((S)-1-fluoroethyl)oxazolidin-2-one at 0.01 uM after 60 mins by LC-MS/MS analysis; format: ADME, Microsome

| Structure (SMILES) | IC50 [1] | IC50 [2] | other results |
| --- | --- | --- | --- |
| C[C@H](F)[C@H]1COC(=O)N1c1ccnc(NC2(c3cn(-c4ccccc4C(F)(F)F)cn3)CC2)n1 | 112 nM | – | – |
| Cc1c(C2(Nc3nccc(N4C(=O)OC[C@@H]4[C@H](C)F)n3)CC2)ncn1-c1cccc(C(F)(F)F)c1 | 56 nM | 38 nM | – |
| C[C@H](F)[C@H]1COC(=O)N1c1ccnc(NC2(c3cn(-c4ccc(C(F)(F)F)cc4)cn3)CC2)n1 | 65 nM | 32 nM | – |
| C[C@H](F)[C@H]1COC(=O)N1c1ccnc(NC2(c3ncn(-c4cccc(C(F)(F)F)c4)c3C#N)CC2)n1 | 85 nM | 55 nM | – |
| C[C@H](F)[C@H]1COC(=O)N1c1ccnc(NC2(c3cn(-c4cc(C(F)(F)F)ccn4)cn3)CC2)n1 | 250 nM | – | – |
| C[C@H](F)[C@H]1COC(=O)N1c1ccnc(NC2(c3ncn(-c4cccc(C(F)(F)F)c4)n3)CC2)n1 | 831 nM | – | – |
| O=C1OC[C@H]([C@@H](F)CO)N1c1cc(Cl)nc(NC2(c3cn(-c4ccc(F)c(Cl)c4)cn3)CC2)n1 | – | – | Drug uptake [13]: Active |
| C[C@H](F)[C@H]1COC(=O)N1c1ccnc(NC2(c3ncn(-c4cccc(C(F)(F)F)c4)c3Cl)CC2)n1 | 41 nM | 26 nM | – |
| C[C@H](F)[C@H]1COC(=O)N1c1ccnc(NC2(c3cn(-c4cncc(C(F)(F)F)c4)cn3)CC2)n1 | 152 nM | – | – |
| C[C@H](F)[C@H]1COC(=O)N1c1ccnc(NC2(c3cn(-c4cccc(C(F)(F)F)n4)cn3)CC2)n1 | 266 nM | – | – |

Second part, led by results:

| IC50 [1] | IC50 [2] | Structure (SMILES) | other results |
| --- | --- | --- | --- |
| 25 nM | 12 nM | C[C@H](F)[C@H]1COC(=O)N1c1ccnc(NC2(c3cn(-c4ccc(F)c(Cl)c4)cn3)CC2)n1 | CLint [3]: 185 mL/min/g; CLint [4]: 133 mL/min/g; CLint [5]: 125 mL/min/g; remaining at 1 h, 0.01 µM [6]: 22%; clearance [7]: 172 mL/min/kg; Vd [8]: 1.2 L/kg; AUC [9]: 40 ng·h/mL; AUC [10]: 25 ng·h/mL; bioavailability [11]: 20% |
| 40 nM | 21 nM | C[C@H](F)[C@H]1COC(=O)N1c1ccnc(NC2(c3cn(-c4ccc(F)c(Cl)c4)cn3)CCC2)n1 | CLint [3]: 505 mL/min/g; CLint [4]: 372 mL/min/g; CLint [5]: 195 mL/min/g |
| 42 nM | 23 nM | C[C@H](F)[C@H]1COC(=O)N1c1ccnc(NC2(c3cn(-c4cccc(Cl)c4)cn3)CC2)n1 | – |
| 32 nM | 10 nM | C[C@H](F)[C@H]1COC(=O)N1c1ccnc(NC2(c3cn(-c4cccc(C(F)(F)F)c4)cn3)CC2)n1 | CLint [3]: 430 mL/min/g; CLint [4]: 312 mL/min/g; CLint [5]: 153 mL/min/g |
| 32 nM | 25 nM | C[C@H](F)[C@H]1COC(=O)N1c1cc(Cl)nc(NC2(c3cn(-c4ccc(F)c(Cl)c4)cn3)CC2)n1 | CLint [3]: 155 mL/min/g; CLint [4]: 123 mL/min/g; CLint [5]: 110 mL/min/g |
| 36 nM | 21 nM | C[C@H](F)[C@H]1COC(=O)N1c1ccnc(NC2(c3cn(-c4cc(Cl)cc(Cl)c4)cn3)CC2)n1 | – |
| 54 nM | 56 nM | C[C@H](F)[C@H]1COC(=O)N1c1ccnc(NC2(c3cn(-c4ccc(Cl)cc4)cn3)CC2)n1 | – |
| 35 nM | 18 nM | C[C@H](F)[C@H]1COC(=O)N1c1nc(NC2(c3cn(-c4ccc(F)c(Cl)c4)cn3)CC2)ncc1F | CLint [3]: 95 mL/min/g; CLint [4]: 89 mL/min/g; CLint [5]: 55 mL/min/g; clearance [7]: 65 mL/min/kg; Vd [8]: 0.6 L/kg; AUC [9]: 257 ng·h/mL; AUC [10]: 153 ng·h/mL; bioavailability [11]: 12%; AUC/dose [12]: 31 ng/mL.hr/(mg/kg) |
| 27 nM | 18 nM | C[C@H](F)[C@H]1COC(=O)N1c1ccnc(NC2(c3cn(-c4cc(F)cc(Cl)c4)cn3)CC2)n1 | CLint [3]: 567 mL/min/g; CLint [4]: 240 mL/min/g; CLint [5]: 350 mL/min/g |
| 721 nM | – | CC(F)(F)[C@H]1COC(=O)N1c1ccnc(NC2(c3cn(-c4ccc(F)c(Cl)c4)cn3)CC2)n1 | – |
| 220 nM | – | C[C@H](F)[C@H]1COC(=O)N1c1ccnc(NC2(c3cn(-c4ccnc(C(F)(F)F)c4)cn3)CC2)n1 | – |
